Results from patent US11466016B2, “Pharmaceutical compounds” (priority 2018, dated 2022).
Counter-ions that a name gives are not always drawn. Like-named read-outs stand apart in the source and are kept apart here.

Molecular target: SHP2 (Homo sapiens (Human), UniProt Q06124)
Assay: SHP2 Biochemical Assay (DiFMUP conversion, pIRS1 activating peptide)
[1] = DiFMUP substrate, 0.25 μM pIRS1 peptide, 30 min pre-incubation, average where more than one data point, read-out: SHP2 (IC50)

Chain of SHP2 (Q06124 whole entry): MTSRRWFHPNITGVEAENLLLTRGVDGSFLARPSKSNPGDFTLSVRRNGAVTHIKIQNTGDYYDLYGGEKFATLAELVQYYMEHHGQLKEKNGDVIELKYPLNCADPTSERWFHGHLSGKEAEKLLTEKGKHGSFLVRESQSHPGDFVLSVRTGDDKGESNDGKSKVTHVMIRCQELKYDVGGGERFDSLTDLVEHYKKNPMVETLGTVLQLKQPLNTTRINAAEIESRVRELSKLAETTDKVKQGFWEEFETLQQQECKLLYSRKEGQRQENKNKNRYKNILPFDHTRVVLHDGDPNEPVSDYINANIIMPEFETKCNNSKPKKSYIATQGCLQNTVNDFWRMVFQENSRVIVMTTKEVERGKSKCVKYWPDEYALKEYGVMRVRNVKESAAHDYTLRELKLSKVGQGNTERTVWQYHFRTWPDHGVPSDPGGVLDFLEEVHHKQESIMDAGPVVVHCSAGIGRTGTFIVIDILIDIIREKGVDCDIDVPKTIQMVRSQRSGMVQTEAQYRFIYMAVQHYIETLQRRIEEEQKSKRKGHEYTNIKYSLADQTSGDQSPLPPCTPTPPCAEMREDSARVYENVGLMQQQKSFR

**Q.** `CCn1cc2c(Cl)c(-c3n[nH]c4nc(N5[C@H]6CC[C@@H]5[C@@H](F)[C@@H](N)C6)c(CO)nc34)ccc2n1` [Example 82, {6-[(1R,2S,3S,5S)-3-amino-2-fluoro-8-azabicyclo[3.2.1]octan-8-yl]-3-(4-chloro-2-ethyl-2H-indazol-5-yl)-1H-pyrazolo[3,4-b]pyrazin-5-yl}methanol] was tested. Which IC50 [1] did it give?
**A.** 12 nM

**Q.** For `Cn1nc2ccc(-c3n[nH]c4nc(N5[C@H]6CC[C@@H]5[C@@H](F)[C@@H](N)C6)c(CO)nc34)c(F)c2c1Cl` [Example 83, {6-[(1R,2S,3S,5S)-3-amino-2-fluoro-8-azabicyclo[3.2.1]octan-8-yl]-3-(3-chloro-4-fluoro-2-methyl-2H-indazol-5-yl)-1H-pyrazolo[3,4-b]pyrazin-5-yl}methanol], which IC50 [1] is on record?
**A.** 8.6 nM

**Q.** With `COc1cnc2ccc(-c3n[nH]c4nc(N5[C@H]6CC[C@@H]5[C@@H](F)[C@@H](N)C6)c(CO)nc34)c(Cl)c2n1` [Example 84, {6-[(1R,2S,3S,5S)-3-amino-2-fluoro-8-azabicyclo[3.2.1]octan-8-yl]-3-(5-chloro-3-methoxyquinoxalin-6-yl)-1H-pyrazolo[3,4-b]pyrazin-5-yl}methanol] as the molecule, how does the IC50 [1] read?
**A.** 7.4 nM

**Q.** With `Cn1nc2ccc(-c3n[nH]c4nc(N5[C@@H]6CC[C@H]5[C@@H](F)[C@@H](N)C6)c(CO)nc34)c(Cl)c2c1Cl` [Example 85, {6-[(1S,2S,3S,5R)-3-amino-2-fluoro-8-azabicyclo[3.2.1]octan-8-yl]-3-(3,4-dichloro-2-methyl-2H-indazol-5-yl)-1H-pyrazolo[3,4-b]pyrazin-5-yl}methanol] as the molecule, how does the IC50 [1] read?
**A.** 7.5 nM

**Q.** Which IC50 [1] does the source give for `Cn1nc2ccc(-c3n[nH]c4nc(N5[C@@H]6CC[C@H]5CNC6)c(CO)nc34)c(Cl)c2c1Cl` [Example 86, {6-[3,8-diazabicyclo[3.2.1]octan-8-yl]-3-(3,4-dichloro-2-methyl-2H-indazol-5-yl)-1H-pyrazolo[3,4-b]pyrazin-5-yl}methanol] here?
**A.** 7.2 nM

**Q.** `Cn1nc2ccc(-c3n[nH]c4nc(N5[C@@H]6CC[C@H]5[C@@H](F)[C@@H](N)C6)c(CO)nc34)c(F)c2c1Cl` [Example 87, {6-[(1S,2S,3S,5R)-3-amino-2-fluoro-8-azabicyclo[3.2.1]octan-8-yl]-3-(3-chloro-4-fluoro-2-methyl-2H-indazol-5-yl)-1H-pyrazolo[3,4-b]pyrazin-5-yl}methanol] was tested. Which IC50 [1] did it give?
**A.** 8 nM

**Q.** With `Cn1nc2ccc(-c3n[nH]c4nc(N5[C@@H]6CC[C@H]5C[C@@H](N)C6)c(CO)nc34)c(Cl)c2c1Cl` [Example 88, {6-[endo-3-amino-8-azabicyclo[3.2.1]octan-8-yl]-3-(3,4-dichloro-2-methyl-2H-indazol-5-yl)-1H-pyrazolo[3,4-b]pyrazin-5-yl}methanol] as the molecule, how does the IC50 [1] read?
**A.** 7.1 nM

**Q.** For `Cc1nc2c(-c3ccc4nn(C)cc4c3Cl)n[nH]c2nc1N1C2CCCC1CNC2` [Example 91, 4-Chloro-5-(6-{3,9-diazabicyclo[3.3.1]nonan-9-yl}-5-methyl-1H-pyrazolo[3,4-b]pyrazin-3-yl)-2-methyl-2H-indazole, hydrochloride salt], which IC50 [1] is on record?
**A.** 22 nM

**Q.** With `CCn1cc2c(Cl)c(-c3n[nH]c4nc(N5[C@H]6CC[C@@H]5[C@@H](F)[C@@H](N)C6)c(C)nc34)ccc2n1` [Example 92, (1R,2S,3S,5S)-8-[3-(4-Chloro-2-ethyl-2H-indazol-5-yl)-5-methyl-1H-pyrazolo[3,4-b]pyrazin-6-yl]-2-fluoro-8-azabicyclo[3.2.1]octan-3-amine] as the molecule, how does the IC50 [1] read?
**A.** 8.3 nM

**Q.** Which IC50 [1] does the source give for `Cc1nc2c(-c3ccc4nn(C)c(Cl)c4c3Cl)n[nH]c2nc1N1[C@H]2CC[C@@H]1[C@@H](F)[C@@H](N)C2` [Example 93, (1R,2S,3S,5S)-8-[3-(3,4-Dichloro-2-methyl-2H-indazol-5-yl)-5-methyl-1H-pyrazolo[3,4-b]pyrazin-6-yl]-2-fluoro-8-azabicyclo[3.2.1]octan-3-amine] here?
**A.** 3.6 nM

**Q.** How did the IC50 [1] turn out when `Cc1nc2c(-c3ccc4nn(C)cc4c3Cl)n[nH]c2nc1N1CCC2(CC1)CNC2` [Example 94, 7-[3-(4-Chloro-2-methyl-2H-indazol-5-yl)-5-methyl-1H-pyrazolo[3,4-b]pyrazin-6-yl]-2,7-diazaspiro[3.5]nonane] was run?
**A.** 70 nM

**Q.** For `COc1cnc2ccc(-c3n[nH]c4nc(N5[C@H]6CC[C@@H]5[C@@H](F)[C@@H](N)C6)c(C)nc34)c(Cl)c2n1` [Example 95, (1R,2S,3S,5S)-8-[3-(5-chloro-3-methoxyquinoxalin-6-yl)-5-methyl-1H-pyrazolo[3,4-b]pyrazin-6-yl]-2-fluoro-8-azabicyclo[3.2.1]octan-3-amine], which IC50 [1] is on record?
**A.** 3 nM

**Q.** How did the IC50 [1] turn out when `Cc1nc2c(-c3ccc4ncc(N(C)C)nc4c3Cl)n[nH]c2nc1N1[C@H]2CC[C@@H]1[C@@H](F)[C@@H](N)C2` [Example 96, 7-{6-[(1R,2S,3S,5S)-3-amino-2-fluoro-8-azabicyclo[3.2.1]octan-8-yl]-5-methyl-1H-pyrazolo[3,4-b]pyrazin-3-yl}-8-chloro-N,N-dimethylquinoxalin-2-amine] was run?
**A.** 4.7 nM

**Q.** With `Cc1nc2ccc(-c3n[nH]c4nc(N5[C@H]6CC[C@@H]5[C@@H](F)[C@@H](N)C6)c(CO)nc34)c(Cl)c2s1` [Example 98, {6-[(1R,2S,3S,5S)-3-amino-2-fluoro-8-azabicyclo[3.2.1]octan-8-yl]-3-(7-chloro-2-methyl-1,3-benzothiazol-6-yl)-1H-pyrazolo[3,4-b]pyrazin-5-yl}methanol] as the molecule, how does the IC50 read?
**A.** 4 nM

**Q.** `Cc1c2c(Cl)c(-c3n[nH]c4nc(N5[C@H]6CC[C@@H]5[C@@H](F)[C@@H](N)C6)c(CO)nc34)ccc2nn1C` [Example 99, {6-[(1R,2S,3S,5S)-3-amino-2-fluoro-8-azabicyclo[3.2.1]octan-8-yl]-3-(4-chloro-2,3-dimethyl-2H-indazol-5-yl)-1H-pyrazolo[3,4-b]pyrazin-5-yl}methanol] was tested. Which “SHP2 (percent at stated concentration)” value (at 0.010 uM) did it give?
**A.** 45%@0.010 uM

**Q.** For `COc1cc2c(Cl)c(-c3n[nH]c4nc(N5[C@H]6CC[C@@H]5[C@@H](F)[C@@H](N)C6)c(CO)nc34)ccc2nc1C` [Example 100, {6-[(1R,2S,3S,5S)-3-amino-2-fluoro-8-azabicyclo[3.2.1]octan-8-yl]-3-(5-chloro-3-methoxy-2-methylquinolin-6-yl)-1H-pyrazolo[3,4-b]pyrazin-5-yl}methanol], which IC50 [1] is on record?
**A.** 12 nM

**Q.** `CC(C)n1cc2c(Cl)c(-c3n[nH]c4nc(N5[C@H]6CC[C@@H]5[C@@H](F)[C@@H](N)C6)c(CO)nc34)ccc2n1` [Example 101, {6-[(1R,2S,3S,5S)-3-amino-2-fluoro-8-azabicyclo[3.2.1]octan-8-yl]-3-[4-chloro-2-(propan-2-yl)-2H-indazol-5-yl]-1H-pyrazolo[3,4-b]pyrazin-5-yl}methanol] was tested. Which IC50 [1] did it give?
**A.** 21 nM

**Q.** `Cn1nc2ccc(-c3n[nH]c4nc(N5[C@@H]6CC[C@H]5[C@H](F)[C@@H](N)C6)c(CO)nc34)c(Cl)c2c1Cl` [Example 102, {6-[(1S,2R,3S,5R)-3-amino-2-fluoro-8-azabicyclo[3.2.1]octan-8-yl]-3-(3,4-dichloro-2-methyl-2H-indazol-5-yl)-1H-pyrazolo[3,4-b]pyrazin-5-yl}methanol] was tested. Which IC50 [1] did it give?
**A.** 15 nM

**Q.** Which IC50 [1] does the source give for `CCn1nc2ccc(-c3n[nH]c4nc(N5[C@H]6CC[C@@H]5[C@@H](F)[C@@H](N)C6)c(CO)nc34)c(Cl)c2c1Cl` [Example 103, {6-[(1R,2S,3S,5S)-3-amino-2-fluoro-8-azabicyclo[3.2.1]octan-8-yl]-3-(3,4-dichloro-2-ethyl-2H-indazol-5-yl)-1H-pyrazolo[3,4-b]pyrazin-5-yl}methanol] here?
**A.** 8.9 nM

**Q.** How did the IC50 turn out when `Cn1nc2ccc(-c3c[nH]c4nc(N5[C@H]6CC[C@@H]5[C@@H](F)[C@@H](N)C6)cnc34)c(Cl)c2c1Cl` [Example 104, (1R,2S,3S,5S)-8-[7-(3,4-dichloro-2-methyl-2H-indazol-5-yl)-5H-pyrrolo[2,3-b]pyrazin-3-yl]-2-fluoro-8-azabicyclo[3.2.1]octan-3-amine, hydrochloride] was run?
**A.** 9.5 nM

**Q.** How did the IC50 [1] turn out when `Cn1nc2ccc(-c3n[nH]c4nc(N5[C@H]6CC[C@@H]5[C@@H](F)[C@@H](N)C6)c(CO)nc34)c(F)c2c1Br` [Example 105, {6-[(1R,2S,3S,5S)-3-amino-2-fluoro-8-azabicyclo[3.2.1]octan-8-yl]-3-(3-bromo-4-fluoro-2-methyl-2H-indazol-5-yl)-1H-pyrazolo[3,4-b]pyrazin-5-yl}methanol] was run?
**A.** 8.9 nM

**Q.** How did the IC50 turn out when `COc1cnc2ccc(-c3c[nH]c4nc(N5[C@H]6CC[C@@H]5[C@@H](F)[C@@H](N)C6)cnc34)c(Cl)c2n1` [Example 106, (1R,2S,3S,5S)-8-[7-(5-chloro-3-methoxyquinoxalin-6-yl)-5H-pyrrolo[2,3-b]pyrazin-3-yl]-2-fluoro-8-azabicyclo[3.2.1]octan-3-amine, hydrochloride] was run?
**A.** 22 nM

**Q.** How did the IC50 [1] turn out when `COc1cnc2ccc(-c3c[nH]c4nc(N5[C@@H]6CC[C@H]5C[C@@H](N)C6)cnc34)c(Cl)c2n1` [Example 107, endo-8-[7-(5-chloro-3-methoxyquinoxalin-6-yl)-5H-pyrrolo[2,3-b]pyrazin-3-yl]-8-azabicyclo[3.2.1]octan-3-amine, hydrochloride] was run?
**A.** 22 nM

**Q.** With `Cc1c(-c2n[nH]c3nc(N4[C@H]5CC[C@@H]4[C@@H](F)[C@@H](N)C5)c(CO)nc23)ccc2nn(C)c(Cl)c12` [Example 108, {6-[(1R,2S,3S,5S)-3-amino-2-fluoro-8-azabicyclo[3.2.1]octan-8-yl]-3-(3-chloro-2,4-dimethyl-2H-indazol-5-yl)-1H-pyrazolo[3,4-b]pyrazin-5-yl}methanol] as the molecule, how does the IC50 [1] read?
**A.** 6.6 nM

**Q.** `COc1cnc2ccc(-c3n[nH]c4nc(N5[C@@H]6CC[C@H]5[C@@H](F)[C@@H](N)C6)c(CO)nc34)c(Cl)c2n1` [Example 109, {6-[(1S,2S,3S,5R)-3-amino-2-fluoro-8-azabicyclo[3.2.1]octan-8-yl]-3-(5-chloro-3-methoxyquinoxalin-6-yl)-1H-pyrazolo[3,4-b]pyrazin-5-yl}methanol] was tested. Which IC50 [1] did it give?
**A.** 11 nM

**Q.** For `Cn1nc2ccc(-c3n[nH]c4nc(N5CCC(C)(N)CC5)c(CO)nc34)c(Cl)c2c1Cl` [Example 110, [6-(4-amino-4-methylpiperidin-1-yl)-3-(3,4-dichloro-2-methyl-2H-indazol-5-yl)-1H-pyrazolo[3,4-b]pyrazin-5-yl]methanol], which IC50 [1] is on record?
**A.** 7 nM

**Q.** `COc1cnc2ccc(-c3n[nH]c4nc(N5[C@@H]6CC[C@H]5CNC6)c(CO)nc34)c(Cl)c2n1` [Example 112, [3-(5-Chloro-3-methoxyquinoxalin-6-yl)-6-{3,8-diazabicyclo[3.2.1]octan-8-yl}-1H-pyrazolo[3,4-b]pyrazin-5-yl]methanol] was tested. Which IC50 [1] did it give?
**A.** 12 nM
